Changes are numbered by the printed parent chain. Positions of bridges follow the written chain, without caps; N, C: chain ends. Residues, ends and D or L forms follow the SMILES beside them.

Holding throughout (assay): cell-based
For one test, the target named is T1, rKv4.2 M279A (Rattus norvegicus, UniProt Q63881, M279A).
T1 construct: expressed in transfected cells; host or cells: HEK293T
T1 sequence (Q63881 1-630 M279A): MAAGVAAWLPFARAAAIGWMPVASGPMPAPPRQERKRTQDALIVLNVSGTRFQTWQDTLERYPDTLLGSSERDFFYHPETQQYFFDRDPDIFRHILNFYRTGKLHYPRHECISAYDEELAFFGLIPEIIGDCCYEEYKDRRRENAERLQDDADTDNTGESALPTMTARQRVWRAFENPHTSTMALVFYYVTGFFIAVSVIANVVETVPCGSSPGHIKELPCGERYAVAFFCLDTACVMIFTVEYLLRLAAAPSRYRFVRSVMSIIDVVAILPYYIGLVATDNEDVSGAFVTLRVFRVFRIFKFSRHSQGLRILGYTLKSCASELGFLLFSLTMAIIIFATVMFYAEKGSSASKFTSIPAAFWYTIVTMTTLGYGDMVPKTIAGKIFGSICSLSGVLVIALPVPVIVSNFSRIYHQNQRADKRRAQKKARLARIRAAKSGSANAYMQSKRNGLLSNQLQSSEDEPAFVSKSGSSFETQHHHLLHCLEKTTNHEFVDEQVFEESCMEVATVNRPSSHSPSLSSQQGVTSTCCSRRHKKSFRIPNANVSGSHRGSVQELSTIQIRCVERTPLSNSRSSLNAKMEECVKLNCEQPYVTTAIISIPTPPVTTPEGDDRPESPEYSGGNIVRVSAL
The note with it: mean ± SEM.

In another test the target is T2, rKv4.2 T280A (Rattus norvegicus, UniProt Q63881, T280A).
T2 construct: expressed in transfected cells; host or cells: HEK293T
T2 sequence (Q63881 1-630 T280A): T1 sequence (Q63881 1-630 M279A) with A279M, T280A
The following applies: mean ± SEM.

In the next test the target is T3, rKv4.2 D281K (Rattus norvegicus, UniProt Q63881, D281K).
T3 construct: expressed in transfected cells; host or cells: HEK293T
T3 sequence (Q63881 1-630 D281K): T1 sequence (Q63881 1-630 M279A) with A279M, D281K
The note with it: mean ± SEM.

A further test addresses T4, hNav1.7 (Homo sapiens, UniProt Q15858).
T4 construct: expressed in transfected cells; host or cells: HEK293T
The note with it: whole-cell patch clamp, HEK293T, hNav1.7 with β1 and β2; held at -90 mV, step to 0 mV; mean ± S.E.M., n = 3-7; SEM; read-out: IC50 for hNav1.7. Background: The patch-clamp technique gives a direct electrical read-out from membranes.

A further test has as its target T5, rKv4.2 V278A (Rattus norvegicus, UniProt Q63881, V278A).
T5 construct: expressed in transfected cells; host or cells: HEK293T
T5 sequence (Q63881 1-630 V278A): T1 sequence (Q63881 1-630 M279A) with V278A, A279M
The note with it: mean ± SEM.

T4 sequence (O60939 30-215): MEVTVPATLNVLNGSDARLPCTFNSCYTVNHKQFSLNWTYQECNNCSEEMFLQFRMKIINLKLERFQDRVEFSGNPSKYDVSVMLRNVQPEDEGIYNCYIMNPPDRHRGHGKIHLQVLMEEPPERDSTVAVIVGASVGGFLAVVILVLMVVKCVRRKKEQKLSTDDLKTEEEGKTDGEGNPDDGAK
T4 sequence (Q15858 other isoform, or with tags, fused parts or gaps): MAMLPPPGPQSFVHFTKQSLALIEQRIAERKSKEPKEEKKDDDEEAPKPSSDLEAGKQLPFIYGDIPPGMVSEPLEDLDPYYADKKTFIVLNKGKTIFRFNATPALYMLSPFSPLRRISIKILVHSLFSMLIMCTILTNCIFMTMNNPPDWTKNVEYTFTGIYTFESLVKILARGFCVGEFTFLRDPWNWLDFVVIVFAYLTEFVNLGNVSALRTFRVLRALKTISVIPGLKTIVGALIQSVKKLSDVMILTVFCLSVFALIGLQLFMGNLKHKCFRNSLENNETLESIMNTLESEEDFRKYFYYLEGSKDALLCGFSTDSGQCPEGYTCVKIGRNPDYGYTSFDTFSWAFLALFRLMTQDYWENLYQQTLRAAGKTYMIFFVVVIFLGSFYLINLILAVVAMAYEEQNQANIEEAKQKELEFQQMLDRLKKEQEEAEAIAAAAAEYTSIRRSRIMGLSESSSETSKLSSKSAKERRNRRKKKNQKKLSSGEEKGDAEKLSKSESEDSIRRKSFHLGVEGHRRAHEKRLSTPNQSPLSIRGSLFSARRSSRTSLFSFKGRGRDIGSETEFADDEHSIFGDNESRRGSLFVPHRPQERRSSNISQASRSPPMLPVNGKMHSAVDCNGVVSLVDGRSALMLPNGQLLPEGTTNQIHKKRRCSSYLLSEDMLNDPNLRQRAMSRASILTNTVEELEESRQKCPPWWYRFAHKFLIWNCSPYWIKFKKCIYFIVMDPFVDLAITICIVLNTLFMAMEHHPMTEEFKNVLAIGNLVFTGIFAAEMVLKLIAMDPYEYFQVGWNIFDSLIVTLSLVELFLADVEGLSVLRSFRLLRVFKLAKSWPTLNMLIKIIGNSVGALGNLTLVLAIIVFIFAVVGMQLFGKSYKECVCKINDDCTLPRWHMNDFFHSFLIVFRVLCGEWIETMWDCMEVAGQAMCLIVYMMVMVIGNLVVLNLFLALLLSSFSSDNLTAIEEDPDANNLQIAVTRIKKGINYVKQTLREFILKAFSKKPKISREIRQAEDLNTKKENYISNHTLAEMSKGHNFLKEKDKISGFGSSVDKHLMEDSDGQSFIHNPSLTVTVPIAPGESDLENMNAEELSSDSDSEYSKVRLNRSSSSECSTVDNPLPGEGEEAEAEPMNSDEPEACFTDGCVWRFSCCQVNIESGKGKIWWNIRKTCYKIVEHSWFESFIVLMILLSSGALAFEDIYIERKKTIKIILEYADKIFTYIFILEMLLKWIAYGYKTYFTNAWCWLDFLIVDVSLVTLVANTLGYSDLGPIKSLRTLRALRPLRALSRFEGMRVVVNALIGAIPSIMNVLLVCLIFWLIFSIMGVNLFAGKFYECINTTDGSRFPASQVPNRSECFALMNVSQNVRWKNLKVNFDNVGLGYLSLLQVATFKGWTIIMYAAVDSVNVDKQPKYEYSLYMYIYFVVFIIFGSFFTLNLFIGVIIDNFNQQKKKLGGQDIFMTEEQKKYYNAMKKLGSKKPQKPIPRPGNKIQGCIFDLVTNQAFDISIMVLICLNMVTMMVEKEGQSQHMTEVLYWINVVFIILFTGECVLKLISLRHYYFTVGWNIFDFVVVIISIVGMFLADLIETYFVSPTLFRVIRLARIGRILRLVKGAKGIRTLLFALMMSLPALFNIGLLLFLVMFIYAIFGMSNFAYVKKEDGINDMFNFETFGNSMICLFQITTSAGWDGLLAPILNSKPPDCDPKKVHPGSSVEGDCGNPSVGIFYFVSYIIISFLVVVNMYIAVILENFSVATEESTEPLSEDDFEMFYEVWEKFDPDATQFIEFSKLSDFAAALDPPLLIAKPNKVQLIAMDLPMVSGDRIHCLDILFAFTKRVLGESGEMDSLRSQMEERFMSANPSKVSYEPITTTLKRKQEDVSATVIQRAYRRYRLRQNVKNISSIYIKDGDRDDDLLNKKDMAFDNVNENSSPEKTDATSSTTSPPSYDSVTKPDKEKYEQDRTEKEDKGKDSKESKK
T4 sequence (Q07699 19-218, further chain): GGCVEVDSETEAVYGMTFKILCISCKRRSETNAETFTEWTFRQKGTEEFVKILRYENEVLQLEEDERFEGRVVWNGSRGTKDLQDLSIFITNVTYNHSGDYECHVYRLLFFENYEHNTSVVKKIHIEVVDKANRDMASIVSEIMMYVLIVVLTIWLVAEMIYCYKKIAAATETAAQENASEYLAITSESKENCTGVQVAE

By IC50 is commonly meant the point on the concentration scale where inhibition reaches its midpoint. Take `CC(C)C[C@H](NC(=O)[C@H](Cc1ccc(O)cc1)NC(=O)[C@@H](NC(=O)[C@H](CCCCN)NC(=O)[C@@H]1CSSC[C@@H]2NC(=O)[C@H](CCC(=O)O)NC(=O)[C@H](CC(N)=O)NC(=O)[C@H](CCCCN)NC(=O)CNC(=O)[C@@H]3CCCN3C(=O)[C@H]([C@@H](C)O)NC(=O)[C@@H]3CSSC[C@H](NC(=O)[C@H](C)NC(=O)[C@H](Cc4ccc(O)cc4)NC(=O)[C@H](CC(N)=O)NC(=O)[C@@H]4CCCN4C(=O)[C@H](CSSC[C@H](NC(=O)CN)C(=O)N[C@@H](CCCCN)C(=O)NCC(=O)N[C@@H](Cc4ccccc4)C(=O)NCC(=O)N[C@@H](CC(=O)O)C(=O)N[C@@H](CO)C(=O)N3)NC2=O)C(=O)N[C@@H](CO)C(=O)N[C@@H](CO)C(=O)N[C@@H](CCCCN)C(=O)N[C@@H](Cc2c[nH]cn2)C(=O)N[C@@H](CCCCN)C(=O)N[C@@H](Cc2c[nH]c3ccccc23)C(=O)N1)C(C)C)C(N)=O` [HNTX-III] (H-GCKGFGDSCTPGKNECCPNYACSSKHKWCKVYL-NH2; disulfide 2-17, 9-22, 16-29): the IC50 at rKv4.2 M279A is 1000 ± 347 nM; at rKv4.2 T280A, 38 ± 14 nM; against rKv4.2 D281K, 5000 ± 1000 nM; on hNav1.7, 207 ± 57.2 nM; against rKv4.2 V278A it was 177 ± 63 nM.
The like results for `CC[C@H](C)[C@H](NC(=O)[C@H](CCC(=O)O)NC(=O)[C@H](Cc1ccc(O)cc1)NC(=O)[C@H](CCCCN)NC(=O)[C@@H]1CSSC[C@@H]2NC(=O)[C@H](CCC(N)=O)NC(=O)[C@H](CC(=O)O)NC(=O)[C@H](CC(N)=O)NC(=O)[C@H](CO)NC(=O)[C@@H]3CCCN3C(=O)[C@H](CC(N)=O)NC(=O)[C@@H]3CSSC[C@H](NC(=O)[C@H](C(C)C)NC(=O)[C@H](CC(C)C)NC(=O)[C@H](CC(N)=O)NC(=O)[C@H](CO)NC(=O)[C@H](CO)NC(=O)[C@H](CCCCN)NC(=O)[C@H](CSSC[C@H](NC(=O)[C@@H](N)CCC(=O)O)C(=O)N[C@@H](CC(C)C)C(=O)NCC(=O)N[C@@H](Cc4ccccc4)C(=O)NCC(=O)N[C@@H](CCCCN)C(=O)NCC(=O)N3)NC2=O)C(=O)N[C@@H](CO)C(=O)N[C@@H](CCCNC(=N)N)C(=O)N[C@@H](CCCCN)C(=O)N[C@@H](Cc2c[nH]cn2)C(=O)N[C@@H](CCCNC(=N)N)C(=O)N[C@@H](Cc2c[nH]c3ccccc23)C(=O)N1)C(N)=O` [HNTX-IV] were, in that order, 167 ± 14 nM, 136 ± 21 nM, 191 ± 32 nM, 243 ± 42.5 nM and 182 ± 50 nM.
Regarding `CSCC[C@@H]1NC(=O)CNC(=O)[C@H](CCC(=O)O)NC(=O)[C@@H]2CSSC[C@H](NC(=O)[C@@H](N)Cc3ccc(O)cc3)C(=O)N[C@@H](CCC(N)=O)C(=O)N[C@@H](CCCCN)C(=O)N[C@@H](Cc3c[nH]c4ccccc34)C(=O)N[C@@H](CCSC)C(=O)N[C@@H](Cc3c[nH]c4ccccc34)C(=O)N[C@@H]([C@@H](C)O)C(=O)N[C@H]3CSSC[C@H](NC(=O)[C@H](C(C)C)NC1=O)C(=O)N[C@@H](CCCNC(=N)N)C(=O)N[C@@H](CC(C)C)C(=O)N[C@@H](Cc1c[nH]c4ccccc14)C(=O)N[C@H](C(=O)N[C@@H](CCCCN)C(=O)N[C@@H](CCCCN)C(=O)N[C@@H](CCCCN)C(=O)N[C@@H](CC(C)C)C(=O)N[C@@H](Cc1c[nH]c4ccccc14)C(=O)O)CSSC[C@H](NC(=O)[C@H](CCCCN)NC(=O)[C@H](CCCNC(=N)N)NC(=O)[C@H](CCC(=O)O)NC(=O)[C@H](CO)NC(=O)[C@H](CC(=O)O)NC3=O)C(=O)N2` [ProTx-II], the IC50 was 17 ± 5 nM against rKv4.2 M279A, 89 ± 21 nM on rKv4.2 T280A, 27 ± 2 nM against rKv4.2 D281K and 10 ± 2 nM at rKv4.2 V278A.
As for `CC[C@H](C)[C@@H]1NC(=O)[C@@H]2CSSC[C@@H]3NC(=O)[C@H](C(C)C)NC(=O)[C@H](CC(C)C)NC(=O)[C@H](CC(N)=O)NC(=O)[C@@H]4CCCN4C(=O)[C@H](CCCNC(=N)N)NC(=O)[C@H](CSSC[C@H](NC(=O)[C@@H](N)CC(=O)O)C(=O)N[C@@H](CC(C)C)C(=O)NCC(=O)N[C@@H](C)C(=O)N[C@@H](Cc4ccccc4)C(=O)N[C@@H](CCCNC(=N)N)C(=O)N[C@@H](CCCCN)C(=O)N2)NC(=O)[C@H](CSSC[C@@H](C(=O)N[C@@H](CCCCN)C(=O)N[C@@H](Cc2ccc(O)cc2)C(=O)N[C@H](C(=O)N[C@@H](Cc2ccccc2)C(N)=O)C(C)C)NC(=O)[C@H](Cc2c[nH]c4ccccc24)NC(=O)[C@H](CCCNC(=N)N)NC(=O)[C@H](Cc2c[nH]cn2)NC(=O)[C@H](C)NC(=O)[C@H](CO)NC(=O)[C@H](CO)NC3=O)NC(=O)[C@H](CCCCN)NC(=O)[C@H](CC(=O)O)NC(=O)[C@H](CC(N)=O)NC(=O)[C@H](CC(=O)O)NC(=O)[C@@H]2CCCN2C1=O` [mGpTx1-SA] (H-DCLGAFRKCIPDNDKCCRPNLVCSSAHRWCKYVF-NH2; disulfide 2-17, 9-23, 16-30), on hNav1.7, the IC50 turned out to be 40.3 ± 3.2 nM.

The record behind these values is paper PMC11558128 (Advanced Science, 2024).
